Assay results from patent US20250000785A1, “COSMETIC COMPOSITION COMPRISING CRANBERRY EXTRACT AND CRANBERRY SEED OIL” (Givaudan SA, priority 2021, published 2025).

Test system: TNF-α release of Normal Human Epidermal Keratinocytes (NHEKs) stressed with PMA
Assay: TNF-α release by NHEKs stressed with PMA (ELISA quantification, normalised with MTT)
Format: cell-based
Settings: dexamethasone 1 μM, 24 h pre-incubation, then PMA 1 ng/ml 24 h; vs untreated PMA-stressed NHEKs; p<0.001
Experimental: The effect of a cranberry extract, a cranberry seed oil and combinations of a cranberry extract and a cranberry seed oil on the anti-inflammatory activity of keratinocytes stressed with PMA was evaluated by comparing the decrease of the cytokine TNF-α release of Normal Human Epidermal Keratinocytes (NHEKs) treated with the cranberry products and stressed with PMA (Phorbol 12-myristate 13-acetate) with the TNF-α release of untreated NHEKs stressed with PMA.
The cell culture was done on primary cells isolated from fresh biopsies. NHEKs were seeded in a type I collagen pre-coated 24 wells-plate at 30 000 cells per well in triplicate. […]
A MTT assay was performed to evaluate treatments toxicity and for the normalisation of TNF-α quantification.
MTT solution (Sigma) diluted at 1 mg/mL in basal medium was added to each well and incubated for 3 hours at 37° C., 5% CO2. […] The optical density was measured at a wavelength of 560 nm.
The TNF-α quantification was realized with the Human TNF-alpha Quantikine ELISA kit (DTA00D, R&D Systems).
The samples and the standard range were incubated for 2 hours in 96-wells plate pre-coated with a monoclonal antibody specific for human TNF-α in presence of the Assay Diluent RD1F. […] The optical density was measured at 450 nm and 540 nm with a microplate reader (TECAN SPARK® 10M). […]
The quantification was carried out in duplicate. […]

## C[C@@H]1C[C@H]2[C@@H]3CCC4=CC(=O)C=C[C@]4(C)[C@@]3(F)[C@@H](O)C[C@]2(C)[C@@]1(O)C(=O)CO [dexamethasone, Dexamethasone]
  reduction of the release of cytokine TNF-α: 46%
